This is an account of results in ChEMBL document CHEMBL1140602, “A simple, yet highly accurate, QSAR model captures the complement inhibitory activity of compstatin” (Bioorg Med Chem, 2007).

Structures are written as SMILES. Positions of bridges follow the written chain, without caps; N, C: chain ends. Residues, ends and D or L forms follow the SMILES beside them.

The nature of this test: Inhibition of C3b activation relative to compstatin.
Molecule `CC[C@H](C)[C@H](N)C(=O)N[C@H]1CSSC[C@@H](C(=O)N[C@H](C(N)=O)[C@@H](C)O)NC(=O)[C@H](CCCCN)NC(=O)[C@H](Cc2cnc[nH]2)NC(=O)[C@H](Cc2cnc[nH]2)NC(=O)CNC(=O)[C@H](Cc2c[nH]c3ccccc23)NC(=O)[C@H](CC(=O)O)NC(=O)[C@H](CCC(N)=O)NC(=O)[C@H](C(C)C)NC(=O)[C@H](C(C)C)NC1=O` (H-ICVVQDWGHHKCT-NH2; disulfide 2-12) gave a logIC50 of -0.226. Next, `CC(C)C[C@H](N)C(=O)N[C@H]1CSSC[C@@H](C(=O)NCC(N)=O)NC(=O)[C@H](CCCNC(=N)N)NC(=O)[C@H](Cc2cnc[nH]2)NC(=O)[C@H](Cc2c[nH]c3ccccc23)NC(=O)CNC(=O)[C@H](Cc2c[nH]c3ccccc23)NC(=O)[C@H](CC(=O)O)NC(=O)[C@H](CCC(N)=O)NC(=O)[C@H](C(C)C)NC(=O)[C@H](C(C)C)NC1=O` (H-LCVVQDWGWHRCG-NH2; disulfide 2-12): 0.617; `CC(C)C[C@@H]1NC(=O)[C@H](CCCNC(=N)N)NC(=O)CNC(=O)[C@H](Cc2c[nH]c3ccccc23)NC(=O)[C@H](CC(=O)O)NC(=O)[C@H](CCC(N)=O)NC(=O)[C@H](Cc2ccccc2)NC(=O)[C@H](C(C)C)NC(=O)[C@@H](NC(=O)[C@@H](N)CO)CSSC[C@@H](C(=O)N2CCC[C@H]2C(N)=O)NC(=O)[C@H](C)NC1=O` (H-SCVFQDWGRLACP-NH2; disulfide 2-12): -0.301.
